Data reported in patent publication US20170275270A1, “BENZYL SUBSTITUTED INDAZOLES” (Bayer Pharma Aktiengesellschaft, priority 2014, published 2017).
Counter-ions that a name gives are not always drawn. Like-named read-outs stand apart in the source and are kept apart here.

Columns and labels:
[1] = biological target: T1, catalytic domain of human Bub1 (amino acids 704-1085) (Homo sapiens, UniProt O43683); assay: Bub1 kinase assay (TR-FRET); assay type: biochemical
T1 construct: catalytic domain of human Bub1 (amino acids 704-1085); His6 (N); made in house; host or cells: Hi5 insect cells
T1 sequence (O43683 704-1085): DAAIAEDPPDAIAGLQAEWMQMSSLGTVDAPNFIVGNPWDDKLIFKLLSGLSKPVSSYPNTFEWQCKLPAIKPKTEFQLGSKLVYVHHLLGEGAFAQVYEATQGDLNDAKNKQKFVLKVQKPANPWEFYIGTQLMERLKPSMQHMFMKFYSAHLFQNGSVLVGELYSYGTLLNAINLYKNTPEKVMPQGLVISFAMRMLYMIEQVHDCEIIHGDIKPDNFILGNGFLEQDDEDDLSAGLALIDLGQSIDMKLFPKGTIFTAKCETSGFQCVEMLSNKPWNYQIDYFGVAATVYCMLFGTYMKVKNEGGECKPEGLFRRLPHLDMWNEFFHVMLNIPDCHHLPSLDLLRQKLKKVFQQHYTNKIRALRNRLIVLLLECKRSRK
Method in brief: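 Compounds from 2 mM DMSO stocks, serially diluted 1:3.4, incubated with enzyme at 22° C for 60 min. Stopped with EDTA, then 1 h with streptavidin-XL665, anti-phosphoserine antibody and Eu-labelled anti-mouse IgG. Phosphorylated biotin-peptide read by TR-FRET; IC50 by 4-parameter logistic fit.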

Bub1 = Bub1 (Homo sapiens, UniProt O43683); assay: Formation-Assay: phosphorylation status of histone 2A by inhibition of kinase activity of Bub1; assay type: cell-based; conditions: Biological Assay 4.1: H2A Formation IC50, co-treatment with Nocodazole 1 μg/ml, 16 h
Sequence of Bub1 (O43683 whole entry): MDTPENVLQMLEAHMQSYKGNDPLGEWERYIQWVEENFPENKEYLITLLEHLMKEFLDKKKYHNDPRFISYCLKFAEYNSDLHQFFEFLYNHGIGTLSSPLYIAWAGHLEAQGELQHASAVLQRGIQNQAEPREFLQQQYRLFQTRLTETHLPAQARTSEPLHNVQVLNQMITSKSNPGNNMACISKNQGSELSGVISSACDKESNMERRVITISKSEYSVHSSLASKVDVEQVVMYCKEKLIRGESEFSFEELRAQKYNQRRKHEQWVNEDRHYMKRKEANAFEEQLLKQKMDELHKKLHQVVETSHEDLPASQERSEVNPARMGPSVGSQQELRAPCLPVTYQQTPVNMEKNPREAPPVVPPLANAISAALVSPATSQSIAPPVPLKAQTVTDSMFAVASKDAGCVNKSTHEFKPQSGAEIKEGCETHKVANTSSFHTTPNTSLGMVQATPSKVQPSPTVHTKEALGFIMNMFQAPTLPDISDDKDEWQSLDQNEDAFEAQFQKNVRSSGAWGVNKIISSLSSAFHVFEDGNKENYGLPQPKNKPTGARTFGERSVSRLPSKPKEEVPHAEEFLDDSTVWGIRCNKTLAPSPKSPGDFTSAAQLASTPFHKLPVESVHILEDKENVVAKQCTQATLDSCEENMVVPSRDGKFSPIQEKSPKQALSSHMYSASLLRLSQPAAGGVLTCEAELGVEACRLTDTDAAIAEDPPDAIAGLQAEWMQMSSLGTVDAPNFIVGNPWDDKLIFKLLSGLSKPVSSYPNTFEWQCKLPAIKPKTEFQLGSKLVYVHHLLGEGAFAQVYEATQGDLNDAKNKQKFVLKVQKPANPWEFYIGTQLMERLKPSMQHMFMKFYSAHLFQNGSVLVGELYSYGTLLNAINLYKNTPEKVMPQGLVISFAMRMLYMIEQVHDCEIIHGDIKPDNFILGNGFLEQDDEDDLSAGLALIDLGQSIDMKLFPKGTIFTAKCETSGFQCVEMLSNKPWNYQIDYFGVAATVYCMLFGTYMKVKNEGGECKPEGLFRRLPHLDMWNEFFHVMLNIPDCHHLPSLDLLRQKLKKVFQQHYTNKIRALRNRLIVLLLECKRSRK
Experimental: Biological Assay 4.1: Formation-Assay
Cell-Based Mechanistic Assay: Changes of Phosphorylation Status of Histone 2A by Inhibition of Kinase Activity of Bub1
This assay determines the suppression of histone 2A phosphorylation by a Bub1 kinase inhibitor during co-treatment with Nocodazole. 25000 cells (cells were ordered from ATCC) were seeded in 96 well plate for 5 h at 37° C. Cells were treated with Nocodazole (1 μg/ml) and varying concentrations (between 3 nM and 10 μM) of test compounds for 16 h. Cells were fixed (20 min, Fixing solution R&D), washed three times with PBS and blocked with Odyssey blocking buffer before incubating with the primary antibody against phosphorylated H2A (5 μg/ml ABIN482721) overnight at 2-8° C. After washing, secondary IRDye-labeled antibody mix with cell stains was added for 1 h and washed again with PBS. Plates were scanned with LiCor Odyssey Infrared Imager CLx at 800 nm for P-H2A and at 700 nm for cell stains Draq5/Sapphire. The quotient of 800 nm and 700 nm for Nocodazole only treated cells was set as 100% and the quotient of 800 nm and 700 nm of untreated cells was set as 0%.
Histone H2A is an immediate intracellular substrate of Bub1 kinase. Determination of the phosphorylation status of Histone H2A provides a direct measure of the intracellular activity of Bub1 kinase.

HeLa = assay: Proliferation assay (HeLa cell line); conditions: Homo sapiens, 96 h, read-out: Biological Assay 2: Proliferation assay (HeLa cell line) median IC50;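 also: crystal violet staining of cell number, scaled between a plate stained before dosing (0%) and cells left untreated (100%), compounds tested at 0.001-10 µM, IC50 via 4-parameter fit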
[2] = tested on: HeLa human cervical tumor cells; assay: Proliferation assay (HeLa+Paclitaxel); conditions: read-out: Biological Assay 3: HeLa + Paclitaxel IC50, 3 nM paclitaxel, crystal violet;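 also: compounds at 0.001-10 µM added 4 h after paclitaxel, 92 h exposure, absorbance normalized to zero-point plate (0%) and untreated cells (100%), IC50 from 4-parameter fit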
[3] = 10 μM ATP, read-out: Biological Assay 1: Bub1 kinase assay median IC50
[4] = Biological Assay 1: Bub1 kinase assay median IC50, 10 μM ATP

Row | IC50 [1, 3] | IC50 (Bub1) | IC50 (HeLa) | IC50 [2] | IC50 [1, 4] | SMILES
1 | 22 nM | 120 nM | > 10000 nM | 62 nM | – | CCOc1cc(F)c(Cn2nc(-c3nc4c(c(Nc5cc(C)ncc5C)n3)CC(C)(C)C4)c3ccccc32)c(F)c1 [Example 2-12-59, N-(2,5-dimethylpyridin-4-yl)-2-[1-(4-ethoxy-2,6-difluorobenzyl)-1H-indazol-3-yl]-6,6-dimethyl-6,7-dihydro-5H-cyclopenta[d]pyrimidin-4-amine]
2 | 360 nM | 2.8 nM | 1100 nM | 110 nM | – | CCOc1cc(F)c(Cn2nc(-c3ncc(CCN)c(Nc4ccnc(C(F)(F)F)c4)n3)c3ccccc32)c(F)c1 [Example 2-9-11, 5-(2-aminoethyl)-2-[1-(4-ethoxy-2,6-difluorobenzyl)-1H-indazol-3-yl]-N-[2-(trifluorometh-yl)pyridin-4-yl]pyrimidin-4-amine, salt with hydrochloric acid]
3 | – | 2.6 nM | > 10000 nM | 140 nM | 8.9 nM | OCCOc1cc(F)c(Cn2nc(-c3nc4c(c(Nc5ccncn5)n3)CCC4)c3ccccc32)c(F)c1 [Example 2-6-19, 2-[3,5-difluoro-4-({3-[4-(pyrimidin-4-ylamino)-6,7-dihydro-5H-cyclopenta[d]pyrimidin-2-yl]-1H-indazol-1-yl}methyl)phenoxy]ethanol]
4 | – | 340 nM | 2100 nM | 610 nM | 8.9 nM | CCOc1cc(F)c(Cn2nc(-c3nc4c(c(Nc5ccnc(NC(C)=O)c5)n3)CSC4)c3ccccc32)c(F)c1 [Example 2-19-3, N-[4-({2-[1-(4-ethoxy-2,6-difluorobenzyl)-1H-indazol-3-yl]-5,7-dihydrothieno[3,4-d]pyrimidin-4-yl}amino)pyridin-2-yl]acetamide]
5 | – | 10 nM | > 10000 nM | 1200 nM | 18 nM | OCCOc1cc(F)c(Cn2nc(-c3nc4c(c(Nc5ccnnc5)n3)CCC4)c3ccccc32)c(F)c1 [Example 2-4-10, 2-[3,5-difluoro-4-({3-[4-(pyridazin-4-ylamino)-6,7-dihydro-5H-cyclopenta[d]pyrimidin-2-yl]-1H-indazol-1-yl}methyl)phenoxy]ethanol, salt with hydrochloric acid]
6 | – | 8700 nM | > 10000 nM | 400 nM | 130 nM | CCOc1cc(F)c(Cn2nc(-c3ncc(CCCN4CCC(F)(F)CC4)c(Nc4ccncc4)n3)c3ccccc32)c(F)c1 [Example 2-2-18, 5-[3-(4,4-difluoropiperidin-1-yl)propyl]-2-[1-(4-ethoxy-2,6-difluorobenzyl)-1H-indazol-3-yl]-N-(pyridin-4-yl)pyrimidin-4-amine]
7 | 98 nM | 22 nM | > 10000 nM | 100 nM | – | CCOc1cc(F)c(Cn2nc(-c3nc4c(c(Nc5ccnc(C)n5)n3)CC(C)(C)CC4)c3ccccc32)c(F)c1 [Example 2-12-66, 2-[1-(4-ethoxy-2,6-difluorobenzyl)-1H-indazol-3-yl]-6,6-dimethyl-N-(2-methylpyrimidin-4-yl)-5,6,7,8-tetrahydroquinazolin-4-amine]
8 | – | 12 nM | 1100 nM | 170 nM | 6.1 nM | CCOc1cc(F)c(Cn2nc(-c3ncc(C4CCNCC4)c(Nc4ccncc4)n3)c3ccccc32)c(F)c1 [Example 2-17-1, 2-[1-(4-ethoxy-2,6-difluorobenzyl)-1H-indazol-3-yl]-5-(piperidin-4-yl)-N-(pyridin-4-yl)pyrimidin-4-amine]
9 | 440 nM | 14 nM | 1800 nM | 220 nM | – | CCOc1cc(F)c(Cn2nc(-c3ncc(CC4CNC4)c(Nc4ccnc(C(F)(F)F)c4)n3)c3ccccc32)c(F)c1 [Example 2-9-8]
